Measurements as given in patent US20260297080A1, “BICYCLIC COMPOUNDS AS CDK INHIBITORS” (BeOne Medicines I GmbH, priority 2022, published 2026).
pIC50: −log10 of the molar value.

Assays:
CDK2/Cyclin E1 = CDK2/Cyclin E1 (Homo sapiens, UniProt P24941); assay: CDK2/Cyclin E1 Biochemical Assay (TR-FRET), 0.060 mM ATP; conditions: 0.15 μM Rb (Ser780)-biotin substrate, pH7.0, 60 min preincubation, 120 min reaction, room temperature
Procedure, shortened: (§1)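 Percent inhibition was derived from the 665 nm/620 nm TR-FRET ratio after a 120-minute room-temperature reaction on 0.15 μM Rb (Ser780)-biotin, preceded by 60-minute enzyme–compound preincubation. IC50 came from four-parameter logistic fitting.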

CDK1/Cyclin B1 = CDK1/Cyclin B1 (Homo sapiens, UniProt P06493); assay: CDK1/Cyclin B1 Biochemical Assay (TR-FRET), 0.015 mM ATP; conditions: 0.15 μM Rb (Ser780)-biotin substrate, pH7.0, 60 min preincubation, 120 min reaction, room temperature
Procedure, shortened: as §1

Chain of CDK1/Cyclin B1 (P06493 whole entry): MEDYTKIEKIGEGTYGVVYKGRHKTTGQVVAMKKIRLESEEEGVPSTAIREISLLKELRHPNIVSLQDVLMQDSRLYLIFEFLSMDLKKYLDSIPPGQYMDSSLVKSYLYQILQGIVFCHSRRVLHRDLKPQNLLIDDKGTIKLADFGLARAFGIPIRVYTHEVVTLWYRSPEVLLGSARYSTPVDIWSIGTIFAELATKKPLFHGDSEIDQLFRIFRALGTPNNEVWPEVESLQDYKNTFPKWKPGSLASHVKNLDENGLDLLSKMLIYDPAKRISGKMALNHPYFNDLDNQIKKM
Chain of CDK1/Cyclin B1 (P14635 whole entry partner): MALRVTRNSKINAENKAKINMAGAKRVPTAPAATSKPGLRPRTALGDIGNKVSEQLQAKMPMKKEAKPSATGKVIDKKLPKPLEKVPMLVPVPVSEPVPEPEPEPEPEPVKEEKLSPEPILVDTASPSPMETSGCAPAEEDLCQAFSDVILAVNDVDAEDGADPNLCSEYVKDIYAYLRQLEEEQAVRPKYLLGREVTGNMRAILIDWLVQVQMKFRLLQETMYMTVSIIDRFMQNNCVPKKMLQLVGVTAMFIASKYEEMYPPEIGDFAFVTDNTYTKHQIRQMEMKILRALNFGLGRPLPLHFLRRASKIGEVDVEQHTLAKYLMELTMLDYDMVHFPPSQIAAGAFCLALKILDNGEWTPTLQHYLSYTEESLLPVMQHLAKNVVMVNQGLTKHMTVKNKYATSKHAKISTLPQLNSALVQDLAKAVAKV

Structure (SMILES)	pIC50 (CDK2/Cyclin E1)	pIC50 (CDK1/Cyclin B1)
CC(C)NC(=O)O[C@H]1CC[C@@H](c2cc(Nc3ccc4c(c3)CN(c3ccc5c(c3)CNS5(=O)=O)S4(=O)=O)n[nH]2)C1 (relative stereo) [Example 18, cis-3-(3-((1,1,1′,1′-tetraoxido-2′,3′-dihydro-3H-[2,5′-bibenzo[d]isothiazol]-5-yl)amino)-1H-pyrazol-5-yl)cyclopentyl isopropylcarbamate]	7.67	6.37
CC(C)NC(=O)O[C@H]1CC[C@@H](c2cc(Nc3ccc4c(c3F)C(CCO)S(=O)(=O)N4CCO)n[nH]2)C1 (relative stereo) [Example 253, cis-3-(3-((4-fluoro-1,3-bis(2-hydroxyethyl)-2,2-dioxido-1,3-dihydrobenzo[c]isothiazol-5-yl)amino)-1H-pyrazol-5-yl)cyclopentyl isopropylcarbamate]	8.37	7.02
CC(C)NC(=O)O[C@H]1CC[C@@H](c2cc(Nc3ccc4c(c3F)S(=O)(=O)NC4(C)C)n[nH]2)C1 (relative stereo) [Example 13, cis-3-(3-((7-fluoro-3,3-dimethyl-1,1-dioxido-2,3-dihydrobenzo[d]isothiazol-6-yl)amino)-1H-pyrazol-5-yl)cyclopentyl isopropylcarbamate]	7.68	6.25
CN1c2ccc(Nc3cc([C@@H]4CC[C@H](OC(=O)NC5CCC5)C4)[nH]n3)cc2CS1(=O)=O (racemic) [Example 227, cis-3-(3-((1-methyl-2,2-dioxido-1,3-dihydrobenzo[c]isothiazol-5-yl)amino)-1H-pyrazol-5-yl)cyclopentyl cyclobutylcarbamate]	8.30	6.60
CN1c2ccc(Nc3cc([C@@H]4CC[C@H](OC(=O)NC(C)(C)CO)C4)[nH]n3)c(F)c2CS1(=O)=O (single isomer, unassigned) [Example 327b, cis-3-(3-((4-fluoro-1-methyl-2,2-dioxido-1,3-dihydrobenzo[c]isothiazol-5-yl)amino)-1H-pyrazol-5-yl)cyclopentyl(1-hydroxy-2-methylpropan-2-yl)carbamate]	8.77	7.25
CC[C@H](C)NC(=O)O[C@H]1CC[C@@H](c2cc(Nc3ccc4c(c3F)CS(=O)(=O)N4C)n[nH]2)C1 (relative stereo) [Example 258, cis-3-(3-((4-fluoro-1-methyl-2,2-dioxido-1,3-dihydrobenzo[c]isothiazol-5-yl)amino)-1H-pyrazol-5-yl)cyclopentyl((S)-sec-butyl)carbamate]	8.82	7.43
CC1NS(=O)(=O)c2ccc(Nc3cc([C@@H]4CC[C@H](OC(=O)NC5(C)CC5)C4)[nH]n3)cc21 (single isomer, unassigned) [Example 322c, cis-3-(3-((3-methyl-1,1-dioxido-2,3-dihydrobenzo[d]isothiazol-5-yl)amino)-1H-pyrazol-5-yl)cyclopentyl(1-methylcyclopropyl)carbamate]	8.89	7.54
Cc1c(Nc2cc([C@@H]3CC[C@H](OC(=O)NC(C)C)C3)[nH]n2)ccc2c1CS(=O)(=O)N2C (relative stereo) [Example 243, cis-3-(3-((1,4-dimethyl-2,2-dioxido-1,3-dihydrobenzo[c]isothiazol-5-yl)amino)-1H-pyrazol-5-yl)cyclopentyl isopropylcarbamate]	7.43	6.01
O=C(NCCC(F)(F)F)O[C@@H]1CC[C@H](c2cc(Nc3cc4c(cc3F)S(=O)(=O)NC4)n[nH]2)C1 (single isomer, unassigned) [Example 419a]	8.70	6.53
CC(C)NC(=O)O[C@H]1CC[C@@H](c2cc(Nc3ccc4c(c3F)CN(C3CN(S(C)(=O)=O)C3)S4(=O)=O)n[nH]2)C1 (relative stereo) [Example 89, cis-3-(3-((4-fluoro-2-(1-(methylsulfonyl)azetidin-3-yl)-1,1-dioxido-2,3-dihydrobenzo[d]isothiazol-5-yl)amino)-1H-pyrazol-5-yl)cyclopentyl isopropylcarbamate]	7.47	6.06
COCCN1c2ccc(Nc3cc([C@@H]4CC[C@H](OC(=O)NC(C)C)C4)[nH]n3)cc2CS1(=O)=O (relative stereo) [Example 204, cis-3-(3-((1-(2-methoxyethyl)-2,2-dioxido-1,3-dihydrobenzo[c]isothiazol-5-yl)amino)-1H-pyrazol-5-yl)cyclopentyl isopropylcarbamate]	8.74	7.29
CC1(NC(=O)O[C@H]2CC[C@@H](c3cc(Nc4ccc5c(c4)CS(=O)(=O)N5)n[nH]3)C2)CC1 (relative stereo) [Example 232, cis-3-(3-((2,2-dioxido-1,3-dihydrobenzo[c]isothiazol-5-yl)amino)-1H-pyrazol-5-yl)cyclopentyl(1-methylcyclopropyl)carbamate]	7.92	7.57
CC[C@H](C)NC(=O)O[C@H]1CC[C@@H](c2cc(Nc3ccc4c(c3F)C(C)NS4(=O)=O)n[nH]2)C1 (single isomer, unassigned) [Example 54d]	8.49	6.37
CCCNC(=O)O[C@H]1CC[C@@H](c2cc(Nc3ccc4c(c3F)CS(=O)(=O)N4C3CC3)n[nH]2)C1 (relative stereo) [Example 276, cis-3-(3-((1-cyclopropyl-4-fluoro-2,2-dioxido-1,3-dihydrobenzo[c]isothiazol-5-yl)amino)-1H-pyrazol-5-yl)cyclopentyl propylcarbamate]	8.30	6.95
CC(C)NC(=O)O[C@H]1CC[C@@H](c2cc(Nc3ccc4c(c3F)CN(C(C)C3CCOC3)S4(=O)=O)n[nH]2)C1 (relative stereo) [Example 115, cis-3-(3-((4-fluoro-1,1-dioxido-2-(1-(tetrahydrofuran-3-yl)ethyl)-2,3-dihydrobenzo[d]isothiazol-5-yl)amino)-1H-pyrazol-5-yl)cyclopentyl isopropylcarbamate]	8.22	6.39
CC(C)NC(=O)O[C@H]1CC[C@@H](c2cc(Nc3ccc4c(c3)N(CCO)S(=O)(=O)C4)n[nH]2)C1 (relative stereo) [Example 309, cis-3-(3-((1-(2-hydroxyethyl)-2,2-dioxido-1,3-dihydrobenzo[c]isothiazol-6-yl)amino)-1H-pyrazol-5-yl)cyclopentyl isopropylcarbamate]	8.85	8.21
CN1c2ccc(Nc3cc([C@@H]4CC[C@H](OC(=O)N[C@H]5CC[C@@H](O)CC5)C4)[nH]n3)c(F)c2CS1(=O)=O (relative stereo) [Example 347, cis-3-(3-((4-fluoro-1-methyl-2,2-dioxido-1,3-dihydrobenzo[c]isothiazol-5-yl)amino)-1H-pyrazol-5-yl)cyclopentyl((1s,4s)-4-hydroxycyclohexyl)carbamate]	8.03	6.39
CC1(NC(=O)O[C@H]2CC[C@@H](c3cc(Nc4ccc5c(c4F)CS(=O)(=O)N5CCO)n[nH]3)C2)CCOC1 (relative stereo) [Example 393, cis-3-(3-((4-fluoro-1-(2-hydroxyethyl)-2,2-dioxido-1,3-dihydrobenzo[c]isothiazol-5-yl)amino)-1H-pyrazol-5-yl)cyclopentyl(3-methyltetrahydrofuran-3-yl)carbamate]	8.72	6.92
CC(C)NC(=O)O[C@H]1CC[C@@H](c2cc(Nc3ccc4c(c3)NS(=O)(=O)C4(C)C)n[nH]2)C1 (relative stereo) [Example 304, cis-3-(3-((3,3-dimethyl-2,2-dioxido-1,3-dihydrobenzo[c]isothiazol-6-yl)amino)-1H-pyrazol-5-yl)cyclopentyl isopropylcarbamate]	7.54	6.60
Cc1c(Nc2cc([C@@H]3CC[C@H](OC(=O)NC(C)C)C3)[nH]n2)ccc2c1S(=O)(=O)NC2 (relative stereo) [Example 353, cis-3-(3-((7-methyl-1,1-dioxido-2,3-dihydrobenzo[d]isothiazol-6-yl)amino)-1H-pyrazol-5-yl)cyclopentyl isopropylcarbamate]	8.62	7.03
CC(C)NC(=O)O[C@H]1CC[C@@H](c2cc(Nc3cc(F)c4c(c3)CS(=O)(=O)N4C)n[nH]2)C1 (relative stereo) [Example 280, cis-3-(3-((7-fluoro-1-methyl-2,2-dioxido-1,3-dihydrobenzo[c]isothiazol-5-yl)amino)-1H-pyrazol-5-yl)cyclopentyl isopropylcarbamate]	8.00	6.83
CC(CC(F)(F)F)NC(=O)O[C@H]1CC[C@@H](c2cc(Nc3ccc4c(c3F)CNS4(=O)=O)n[nH]2)C1 (relative stereo) [Example 165, cis-3-(3-((4-fluoro-1,1-dioxido-2,3-dihydrobenzo[d]isothiazol-5-yl)amino)-1H-pyrazol-5-yl)cyclopentyl(4,4,4-trifluorobutan-2-yl)carbamate]	8.89	7.31
CC(C)NC(=O)O[C@H]1CC[C@@H](c2cc(Nc3cc4c(cc3C(F)(F)F)S(=O)(=O)NC4(C)C)n[nH]2)C1 (relative stereo) [Example 21, cis-3-(3-((3,3-dimethyl-1,1-dioxido-6-(trifluoromethyl)-2,3-dihydrobenzo[d]isothiazol-5-yl)amino)-1H-pyrazol-5-yl)cyclopentyl isopropylcarbamate]	< 5.00	< 5.00
CC(C)CNC(=O)O[C@H]1CC[C@@H](c2cc(Nc3cc4c(cc3F)N(CCO)S(=O)(=O)C4)n[nH]2)C1 (relative stereo) [Example 298, cis-3-(3-((6-fluoro-1-(2-hydroxyethyl)-2,2-dioxido-1,3-dihydrobenzo[c]isothiazol-5-yl)amino)-1H-pyrazol-5-yl)cyclopentyl isobutylcarbamate]	8.33	6.78
CC[C@H](C)NC(=O)O[C@H]1CC[C@@H](c2cc(Nc3ccc4c(c3)CS(=O)(=O)N4)n[nH]2)C1 (single isomer, unassigned) [Example 323a]	8.17	7.52
